Here are results for seven molecules from patent US20120135519A1, “INDUCED DERIVATION OF SPECIFIC ENDODERM FROM hPS CELL-DERIVED DEFINITIVE ENDODERM” (Cellartis AB, priority 2009, published 2012).

Format in all cases: cell-based, human
The subject of one assay is PDX1 expression. Briefly: FGF inhibition assays: PDX1 expression in FGF2-treated hPS cell-derived definitive endoderm. The following applies: for PDX1 expression: with FGF2 (64 ng/ml), real-time PCR, fold vs control at day eleven. Here is the method: FGF receptor inhibition assays were performed by adding SU5402 (Calbiochem; […]), LY294002 (Cell Signalling technology; 12.5 μM) and U1026 (Cell Signalling technology; 10 μM) to the medium following DE induction at day three. Control cultures were treated with equal volume of the diluent DMSO. Fresh medium supplemented with appropriate inhibitor was added daily. Two to three samples were taken from separate wells at different time points (day 9-12) for mRNA analysis for each independent experiment.
(§1) Total RNA was extracted with GenElute Mammalian total RNA kit (Sigma-Aldrich). Total RNA concentrations were measured with the NanoDrop ND-1000 spectrophotometer (Nanodrop Technologies). Reverse transcription was performed with SuperScript III, according to the manufacturer's instructions, using 2.5 μM random hexamer and 2.5 μM oligo(dT) (Invitrogen). Real-time PCR measurements were performed on an ABI PRISM 7900HT Sequence Detector System (Applied Biosystems). 20 μl reactions containing 10 μl SuperMix-UDG w/ROX, 400 nM of each primer, 0.125× SYBR Green I (all reagents from Invitrogen) were used. Primer sequences are available as supplementary data (FIG. 6). Formation of expected PCR products was confirmed by agarose gel electrophoresis and melting curve analysis. Gene expression data was normalized against ACTB or RPL7 expression. […] Real-time PCR data analysis was performed as described (Bustin, 2000; Stahlberg et al., 2005).
On the technique in general: Quantitative PCR measures a nucleic acid by following its amplification.

The next assay concerns hPS cells. Kind of assay: Immunofluorescence stainings of hPS cells treated with different FGF2 concentrations. Here is the method: (§2) At day three, cells were washed with PBS and human FGF2 (Invitrogen) was added at different concentrations (0-256 ng/ml according to specifications in the results) in a KO-DMEM based medium containing 1% Penicillin-streptomycin, 1% Glutamax, 1% non-essential amino acids, 0.1mM beta-Mercaptoethanol and 12% knockout serum replacement (all reagents from Invitrogen). Medium was changed every day. Control cultures without FGF2 were grown in parallel and cell morphology was monitored daily. At each time point, two to four biological replicates were taken for each independent experiment. More specifically, each well was divided into 4-5 equal pieces depending on the number of time points that were analyzed.
hPS cells were fixed in 4% paraformaldehyde for 15 minutes at room temperature and washed three times in PBS-T (0.1% Triton X-100 in PBS). Fixed cells were permeabilized with 0.5% Triton X-100 in PBS for 15 minutes and blocked in PBS-T supplemented with 5% normal donkey serum (Jackson lmmunoresearch) for 1 h at room temperature before they were incubated overnight at 4° C. with the following primary antibodies and dilutions: goat polyclonal antibody (pAb) anti-FOXA-2 (kind gift from Palle Serup; Santa Cruz Biotechnology; 1:200), Guinea Pig pAb anti-PDX-1 (Chris Wright; BetaCellBiologyConsortium; 1:1500), Goat anti-PDX-1 (Chris Wright; BetaCellBiologyConsortium; 1:1500), rabbit pAb anti-NKX6.1 (BetaCellBiologyConsortium; 20 1:4000), mouse anti-CDX-2 (kind gift from Jonathan Draper; Biogenex; 1:500), rabbit pAb anti-SOX-9 (Chemicon; 1:500), rabbit anti-HNF-6 (Santa Cruz Biotechnology; 1:400), mouse mAb-anti PH-3 (Cell Signaling technology; 1:50), rabbit pAb-anti MKi67 (Novocastra; 1:200), rabbit anti-S0X2 (kind gift from Palle Serup; Chemicon; 1:250), goat anti-albumin (Bethyl laboratories; 1:300). After overnight incubation cells were washed three times for 5 minutes in PBS; and incubated with corresponding fluorescent secondary antibodies (Alexa 488, Cy3 and 647; Jackson lmmunoresearch and Invitrogen; diluted according to the manufacturer's instructions) for 60 min in PBS-T supplemented with 5% serum at room temperature. Cell nuclei were visualized by 4′-6′diamidino-2-phenylindole (DAPI) (Sigma-Aldrich; 1:1000) incubation for 4 minutes. Immunofluorescence stainings were detected and analyzed by epifluorescence microscopy (Zeiss Axioplan 2).
The percentage of PDX1 positive cells was calculated using the Imaris Imaging software (Bitplane). Ten randomly selected fields were chosen for each parameter. Using DAPI staining the software estimated the total area of cells. The area of the PDX1 positive cells was calculated in the same manner. Finally, the percentage of PDX1 positive cells was calculated by dividing the area of PDX1 positive cells by the DAPI positive area. Raw data from realtime PCR measurements was exported from SDS 2.2.1 and analyzed by Microsoft Excel graph pad. All data were statistically analyzed by multivariate comparison (one-way ANOVA) with Bonferroni correction. All values are depicted as mean±standard error of the mean (SEM) and considered significant if p<0.05.

Assay [1] relates to hPS cell derived definitive endoderm. Briefly: Real-time PCR marker expression in hPS cell-derived definitive endoderm treated with FGF2. The method, then:
hPS cells were seeded at a density of 12,000-24,000 cells/cm^2 and cultured until confluence. hPS cells were then differentiated into definitive endoderm as described previously (D'Amour et al., 2005). Briefly, cells were washed in PBS and treated with 100 ng/ml Activin A (R&D systems) and 25 ng/ml Wingless-type MMTV integration site family, member 3A (Wnt3a) in RPM! 1640 (GIBCO, Invitrogen) for three days in low serum (0-0.2% FBS).
as §2, §1

Assay [2] concerns hPS-derived definitive endoderm. Briefly: Differentiation towards PDX-1 positive pancreatic endoderm with a single FGF instead of FGF2. The following applies: used alone instead of FGF2.
The mark [3] stands for this setting: all FGF2 treated samples (4-256 ng/ml), day eleven, vs control.
The mark [4] stands for this setting: higher FGF2 concentration, day eleven.
[5] abbreviates: increasing FGF2 concentrations, day eleven, vs control (Activin A only).

Entries after “also recorded” stand apart in the source; their conditions may differ.

Turning to `O=c1cc(N2CCOCC2)oc2c(-c3ccccc3)cccc12` [LY294002], the PDX1 expression result in the assay on PDX1 expression (inhibitor 12.5 μM) was “no significant effect”.

As to `N#CC(=C(/N)Sc1ccccc1N)/C(C#N)=C(/N)Sc1ccccc1N` [U1026], the PDX1 expression result with PDX1 expression (inhibitor 10 μM) is on record as “diminished; also recorded: significantly reduced”.

Turning to `Cc1c[nH]c(/C=C2\C(=O)Nc3ccccc32)c1CCC(=O)O` [SU5402], the “number of PDX1 positive cells” value with PDX1 expression (SU5402 with FGF2 (64 ng/ml)) is recorded as “significantly decreased”. In addition, the PDX1 expression result in the assay on PDX1 expression (inhibitor 10 μM) is reported as “significantly reduced”.

In the case of “FGF2: human fibroblast growth factor 2 (Invitrogen) added to the culture medium”, in the assay with hPS cells (4 ng/ml FGF2), the “ALB+ cells (ALB stainings)” value was “abundant” and the “PDX1+ cells” value is “absent”. The “number of PDX1+ cells (percentage of PDX1 positive cells)” value in the assay with hPS cells (64 ng/ml FGF2, Imaris Imaging software, PDX1 area / DAPI area) is reported as 15-20%. In the assay with hPS cells (256 ng/ml FGF2), the “ALB+ cells (ALB stainings)” value is recorded as “none” and the “number of CDX2+ cells” value is reported as “highest number”. Also, in the assay on hPS cells (32, 64 and 256 ng/ml FGF2), the “PDX1+ cells” value was “always present”. Moreover, the “PDX1 mRNA expression” value in assay [1] (4 ng/ml FGF2, day eleven, vs control (Activin A only)) is “remained unchanged”. In assay [1] (64 ng/ml FGF2, day eleven), the “NKX6-1 mRNA expression” value is on record as “peak expression” and the “PDX1 mRNA expression” value is recorded as “peak expression”. In assay [1] (256 ng/ml FGF2, day eleven), the “CDX2 mRNA expression” value was “upregulated”, the “FGF10 mRNA expression” value is “peak expression”, the “MNX1 mRNA expression” value is given as “upregulated” and the “NKX2-1 mRNA expression” value was “peak expression”. In addition, in assay [1] (256 ng/ml FGF2, day eleven), the “PTCH1 mRNA expression” value is “peak expression”, the “SHH mRNA expression” value is recorded as “peak expression”, the “SOX2 mRNA expression” value was “significantly upregulated” and the “SPRY2 mRNA expression” value is “peak expression”. Also, the “CDX1 mRNA expression” value in assay [1] (FGF2 range tested, day eleven) is “remained unaffected”. Besides, in assay [1] (setting [3]), the “NGN3 mRNA expression” value is “upregulated” and the “SOX9 mRNA expression” value is on record as “upregulated”. For the same molecule, in assay [1] (all samples, day eleven), the “CPA1 mRNA expression” value was “remained unchanged” and the “FOXA2 mRNA expression” value is “remained unchanged”. In addition, the CDX4 expression entry in assay [1] (any FGF2 concentration) is given as “not detected”. Moreover, in assay [1] (setting [4]), the FGFR1 expression result is “upregulated”, the FGFR2 expression entry is “downregulated”, the FGFR3 expression result is recorded as “upregulated” and the FGFR4 expression result is given as “downregulated”. Also, the “thyroglobulin (TG) mRNA expression” value in assay [1] (increasing FGF2 concentrations (data not shown)) is given as “downregulated”. Also, in assay [1] (setting [5]), the “ALB mRNA expression” value is “downregulated”, the “HNF4A mRNA expression” value is given as “downregulated” and the “ONECUT1 mRNA expression” value is recorded as “downregulated”. In addition, the HHEX expression entry in assay [1] (tested FGF2 concentrations, non-dose-dependent) is reported as “only moderately reduced”.

B1: FGF4: fibroblast growth factor tested alone instead of FGF2 (protein, UniProt P08620 31-206, looked up)
Fibroblast growth factor 4: APTAPNGTLEAELERRWESLVALSLARLPVAAQPKEAAVQSGAGDYLLGIKRLRRLYCNVGIGFHLQALPDGRIGGAHADTRDSLLELSPVERGVVSIFGVASRFFVAMSSKGKLYGSPFFTDECTFKEILLPNNYNAYESYKYPGMFIALSKNGKTKKGNRVSPTMKVTHFLPRL
On to B1, for which the “induction of differentiation towards PDX-1 positive pancreatic endoderm” value in assay [2] is given as “neither FGF4, FGF7 nor FGF10, when used alone instead of FGF2, is capable of inducing differentiation”.

B2: FGF10: fibroblast growth factor tested alone instead of FGF2 (protein, UniProt O15520 38-208, looked up)
Fibroblast growth factor 10: QALGQDMVSPEATNSSSSSFSSPSSAGRHVRSYNHLQGDVRWRKLFSFTKYFLKIEKNGKVSGTKKENCPYSILEITSVEIGVVAVKAINSNYYLAMNKKGKLYGSKEFNNDCKLKERIEENGYNTYASFNWQHNGRQMYVALNGKGAPRRGQKTRRKNTSAHFLPMVVHS
For the molecule B2, the “induction of differentiation towards PDX-1 positive pancreatic endoderm” value in assay [2] is “neither FGF4, FGF7 nor FGF10, when used alone instead of FGF2, is capable of inducing differentiation”.

B3: FGF7: fibroblast growth factor tested alone instead of FGF2 (protein, UniProt P21781 32-194, looked up)
Fibroblast growth factor 7: CNDMTPEQMATNVNCSSPERHTRSYDYMEGGDIRVRRLFCRTQWYLRIDKRGKVKGTQEMKNNYNIMEIRTVAVGIVAIKGVESEFYLAMNKEGKLYAKKECNEDCNFKELILENHYNTYASAKWTHNGGEMFVALNQKGIPVRGKKTKKEQKTAHFLPMAIT
On to B3, for which the “induction of differentiation towards PDX-1 positive pancreatic endoderm” value in assay [2] is listed as “neither FGF4, FGF7 nor FGF10, when used alone instead of FGF2, is capable of inducing differentiation”.
